Q: With `CC(C)c1cccc(C(C)C)c1NC(=O)CC(=O)N(Cc1ccccc1)C(C)C` [Form A polymorph, N-benzyl-N′-(2,6-diisopropyl-phenyl)-N-isopropyl-malonamide] as the molecule, how does the melting point read?
A: Its melting point is 102.3 °C.

From US7981936B2, “Crystalline ACAT inhibitor” (Graceway Pharmaceuticals, LLC, priority 2005, dated 2011)
